In patent publication EP0600782A1, “C-11 modified pradimicin derivatives” (priority 1992, dated 1994):
Where two headings read alike, the source gives them in different places.

Columns and labels:
[1] = system: Cryptococcus neoformans D49; experiment: In vitro antifungal activity (MIC), agar dilution method, 11-xylosyl precursors; type: cell-based; conditions: yeast morphology agar + 1/15M phosphate buffer (pH 7.0), 10^6 cells/ml, 28°C, 40 hrs
Procedure: (§1) The in vitro antifungal activities of pradimicins T1 and T2 and 11-0-dexylosylpradimicin T1 were determined by the agar dilution method on yeast morphology agar containing 1/15M phosphate buffer (pH 7.0).

[2] = system: Candida tropicalis 85-8 (Kitasato); experiment: as above; type: cell-based; conditions: yeast morphology agar + 1/15M phosphate buffer (pH 7.0), 10^6 cells/ml, 28°C, 40 hrs
Procedure: as §1

[3] = system: Candida albicans ATCC 32354 (B311); experiment: as above; type: cell-based; conditions: 10^6 cells/ml, 28°C, 40 hrs
Procedure: as §1

[4] = system: Saccharomyces cerevisiae ATCC 9763; experiment: as above; type: cell-based; conditions: 10^6 cells/ml, 28°C, 40 hrs
Procedure: as §1

[5] = system: Aspergillus fumigatus IAM 2034; experiment: as above; type: cell-based; conditions: 10^6 cells/ml, 28°C, 40 hrs
Procedure: as §1

[6] = system: Candida albicans A9540; experiment: as above; type: cell-based; conditions: yeast morphology agar + 1/15M phosphate buffer (pH 7.0), 10^6 cells/ml, 28°C, 40 hrs
Procedure: as §1

[7] = system: Trichophyton mentagrophytes 4329; experiment: as above; type: cell-based; conditions: yeast morphology agar + 1/15M phosphate buffer (pH 7.0), 10^7 cells/ml, 28°C, 60 hrs
Procedure: as §1

[8] = system: Cryptococcus neoformans IAM 4514; experiment: as above; type: cell-based; conditions: 10^6 cells/ml, 28°C, 40 hrs
Procedure: as §1

[9] = system: Candida albicans 83-2-14 (Juntendo); experiment: as above; type: cell-based; conditions: yeast morphology agar + 1/15M phosphate buffer (pH 7.0), 10^6 cells/ml, 28°C, 40 hrs
Procedure: as §1

[10] = system: Candida tropicalis IFO 10241; experiment: as above; type: cell-based; conditions: 10^6 cells/ml, 28°C, 40 hrs
Procedure: as §1

[11] = system: Candida albicans ATCC 38247; experiment: as above; type: cell-based; conditions: 10^6 cells/ml, 28°C, 40 hrs
Procedure: as §1

[12] = system: Candida albicans A9540 systemic infection; experiment: In vivo efficacy against systemic infection in mice; parameters: species or system male ICR mice; conditions: for ED50: Candida albicans, iv, 480 h, read-out: PD50; for PD50: C. albicans A9540 systemic infection, male ICR mice, single intravenous dose immediately after challenge, survival rate 20 days after infection
Procedure: (§2) Pradimicins T1 and T2 were evaluated for in vivo efficacy against a Candida albicans A9540 systemic infection in male ICR mice (20-24 g body weight) as described by Oki et al. in "Water-soluble pradimicin derivatives, synthesis and antifungal evaluation of N,N,-dimethyl pradimicins", J. Antibiotics 43:1230-1235, 1990. Five mice at each dose level were challenged intravenously with ten times the 50% lethal dose of the pathogen suspended in saline. Antibiotics were intravenously administered once immediately after the fungal challenge. Infection control animals (n=10) died from 7 to 12 days. The 50% protective dose (PD₅₀) was calculated from the survival rate 20 days after the fungal infection. The acute toxicity of pradimicins T1 and T2 was determined in mice after a single intravenous dose.

[13] = Acute toxicity in mice after a single intravenous dose; type: in vivo
Procedure: as §2

[14] = ATCC32354, yeast morphology agar + 1/15M phosphate buffer (pH 7.0), read-out: MIC
[15] = ATCC9763, yeast morphology agar + 1/15M phosphate buffer (pH 7.0), read-out: MIC
[16] = IAM2034, yeast morphology agar + 1/15M phosphate buffer (pH 7.0), read-out: MIC
[17] = IAM4514, yeast morphology agar + 1/15M phosphate buffer (pH 7.0), read-out: MIC
[18] = IFO10241, yeast morphology agar + 1/15M phosphate buffer (pH 7.0), read-out: MIC
[19] = ATCC38247, yeast morphology agar + 1/15M phosphate buffer (pH 7.0), read-out: MIC
[20] = yeast morphology agar + 1/15M phosphate buffer (pH 7.0)

Cc1cc2c(c(O)c1C(=O)NCC(=O)O)-c1c(cc3c(c1O)C(=O)c1cc(O)cc(O)c1C3=O)[C@H](O)[C@H]2O[C@@H]1O[C@H](C)[C@H](O)[C@H](O[C@@H]2OC[C@@H](O)[C@H](O)[C@H]2O)[C@H]1O [11-O-Dexylosyl-pradimicin T1]
MIC ([1]; read-out: MIC): 6.3 µg/mL | MIC ([2]; read-out: MIC): 12.5 µg/mL | MIC [3, 14]: 3.1 µg/mL | MIC [4, 15]: 3.1 µg/mL | MIC [5, 16]: 25 µg/mL | MIC ([6]; read-out: MIC): 6.3 µg/mL | MIC ([7]; read-out: MIC): 12.5 µg/mL | MIC [8, 17]: 6.3 µg/mL | MIC ([9]; read-out: MIC): 3.1 µg/mL | MIC [10, 18]: 12.5 µg/mL | MIC [11, 19]: 3.1 µg/mL

C[C@@H]1[C@H](O)[C@@H](C)/C=C/C=C/C=C/C=C/C=C/C=C/C=C/[C@H](O[C@@H]2O[C@H](C)[C@@H](O)[C@H](N)[C@@H]2O)C[C@@H]2O[C@](O)(C[C@@H](O)C[C@@H](O)[C@H](O)CC[C@@H](O)C[C@@H](O)CC(=O)O[C@H]1C)C[C@H](O)[C@H]2C(=O)O [Amphotericin B, reference compound]
ED50 [12]: 0.2 mg/kg | LD50 ([13]; mouse, in vivo, read-out: LD50): 4.5 mg/kg

CC(=O)N1CCN(c2ccc(OCC3COC(Cn4ccnc4)(c4ccc(Cl)cc4Cl)O3)cc2)CC1 (centres unmarked) [Ketoconazole, reference compound]
ED50 [12]: > 50 mg/kg | MIC ([1]; read-out: MIC): 0.8 µg/mL | MIC ([2]; read-out: MIC): 100 µg/mL | MIC [3, 14]: 50 µg/mL | MIC [4, 15]: 50 µg/mL | MIC [5, 16]: 3.1 µg/mL | MIC ([6]; read-out: MIC): 50 µg/mL | MIC ([7]; read-out: MIC): 0.8 µg/mL | MIC [8, 17]: 0.4 µg/mL | MIC [10, 18]: 50 µg/mL | MIC [11, 19]: 25 µg/mL

Pradimicin T1
PD50 [12]: 27 mg/kg | MIC [1]: 3.1 µg/mL | MIC [2]: 25 µg/mL | MIC [3, 20]: 6.3 µg/mL | MIC [4, 20]: 3.1 µg/mL | MIC [5, 20]: 6.3 µg/mL | MIC [6]: 6.3 µg/mL | MIC [7]: 6.3 µg/mL | MIC [8, 20]: 3.1 µg/mL | MIC [9]: 6.3 µg/mL | MIC [10, 20]: 12.5 µg/mL | MIC [11, 20]: 1.6 µg/mL | LD50 [13]: 300 mg/kg

Pradimicin T2
PD50 [12]: >50 mg/kg | MIC [1]: 6.3 µg/mL | MIC [2]: 6.3 µg/mL | MIC [3, 20]: 3.1 µg/mL | MIC [4, 20]: 0.8 µg/mL | MIC [5, 20]: >100 µg/mL | MIC [6]: 3.1 µg/mL | MIC [7]: 50 µg/mL | MIC [8, 20]: 6.3 µg/mL | MIC [9]: 3.1 µg/mL | MIC [10, 20]: 6.3 µg/mL | MIC [11, 20]: 1.6 µg/mL | LD50 [13]: >600 mg/kg
